pEC50: −log10 of the molar value. Values after ≈ are worked out from the molar mass of the structure shown.
Tests used:
HIV = conditions: cited from earlier work; for REDUCTION IN VIRAL LOAD: patients, drug used on its own
[1] = human, in vivo; cited from earlier work
wild-type HIV-1 (111a) = assay: Test 2: syncytium formation in HIV-1 infected CEM cell cultures; assay type: cell-based; conditions: CEM cells, 4 days at 37° C., syncytium formation inhibited by 50%; for EC50: Human immunodeficiency virus 1, CCRF-CEM, 96 h
Method: (§1) Two tests were performed: Test 1 was performed using infected blood, while Test 2 used cell cultures.
The results shown in Table 1 for test 2 were obtained by testing cell cultures in accordance with the following procedure.
CEM cells were suspended at approximately 250,000 cells per milliliter of culture medium and infected with wild-type HIV-1 (111a) at approximately 100 times the 50% cell culture infective dose (CCID50) per milliliter. Then 100 μl of the infected cell suspensions were added to 200 μl microtiter plate wells containing 100 μl of an appropriate dilution of the test compounds. After 4 days incubation at 37° C. the cell cultures were microscopically examined for syncytium formation.

[2] = target: T1, viral envelope protein gp120 interaction with the cellular receptor protein CD4 (Human immunodeficiency virus type 1 group M subtype B, UniProt P04578); assay: biochemical; assay type: binding, HIV; conditions: for activity in words, compared with AC-1: summary of Table 1, both tests
T1 construct: viral envelope protein gp120
Method: as §1
All stocks solutions were made 25 mM in distilled water and tested at same concentrations.
The procedure was carried out as follows: • 1 Plastic plates were coated with cellular receptor protein CD4. • 2 The plates were washed well before adding a predetermined, appropriate quantity of viral envelope protein gp120 for binding to CD4. • 3 To see inhibition by compounds, different concentrations were added a few minutes before adding gp120. • 4 The mixture was incubated at 37° C. for binding. • 5 The plates were then flashed well and bound gp120 was detected by reaction with anti-HIV antibodies, incubated for 12 hours at 4° C. • 6 The amount of antibody bound was detected by adding anti-Human antibodies attached to an enzyme horse raddish peroxidase. • 7 After another incubation and wash, the quantity of the enzyme was measured by adding substrate o-phenyl diamine (OPD). • 8 The colour developed was read at 492 nm. • 9 All incubations took three days for adding different reagents. The percentage of inhibition by compounds, was calculated from the standard curve obtained by using different dilutions of gp120 alone. Test 2

[3] = cited from earlier work
HIV-1 [4] = assay: Anti-HIV EC50 in cell cultures (benchmark AZT); conditions: in vitro
Text: The antigen Agp120 assay—the virus related antigen—is related to the number of virus particles produced by measuring glycoprotein gp120 in infected cell cultures.
The therapeutic index is selected so as not to damage healthy cells.

cell growth = conditions: cited from earlier work
HIV-1 [5] = conditions: cells protected from HIV infection, cell cultures; cited from earlier work

Nc1nc(NC2CC2)c2ncn([C@H]3C=C[C@@H](CO)C3)c2n1 [Abacavir]
REDUCTION IN VIRAL LOAD (HIV): 50–90%

Cc1cn([C@H]2C=C[C@@H](CO)O2)c(=O)[nH]c1=O [Stavudine]
REDUCTION IN VIRAL LOAD (HIV): 50–90%
SIDE EFFECTS [1]: peripheral neuropathy

O=C(O)COc1c(O)c2cc(c1O)C(c1ccc(F)cc1)c1cc(c(O)c(OCC(=O)O)c1O)C(c1ccc(F)cc1)c1cc(c(O)c(OCC(=O)O)c1O)C(c1ccc(F)cc1)c1cc(c(O)c(OCC(=O)O)c1O)C2c1ccc(F)cc1 (centres unmarked) [BC130202A]
EC50 (wild-type HIV-1 (111a)): 10 µg/mL (≈ 8.61 µM)
pEC50 [2]: 5.30
% inhibition of gp120/CD4 binding ([2]; Conc 1.56 um): 19%
% inhibition of gp120/CD4 binding ([2]; Conc 3.125 um): 32%
% inhibition of gp120/CD4 binding ([2]; Conc 6.25 um): 46%
% inhibition of gp120/CD4 binding ([2]; Conc 12.5 um): 56%
% inhibition of gp120/CD4 binding ([2]; Conc 25 um): 70%
% inhibition of gp120/CD4 binding ([2]; Conc 50 um): 82%
% inhibition of gp120/CD4 binding ([2]; Conc 100 um): 90%
activity in words, compared with AC-1 [2]: active

Cc1ccnc2c1NC(=O)c1cccnc1N2C1CC1 [Nevirapinc]
REDUCTION IN VIRAL LOAD (HIV): 50–90%
SIDE EFFECTS [1]: skin reaction

CC(C)c1nc(CN(C)C(=O)N[C@H](C(=O)N[C@@H](Cc2ccccc2)C[C@H](O)[C@H](Cc2ccccc2)NC(=O)OCc2cncs2)C(C)C)cs1 [Ritonavir]
REDUCTION IN VIRAL LOAD (HIV): 99%
SIDE EFFECTS [1]: diarrhoea nausea,

O=C1Nc2ccc(Cl)cc2[C@@](C#CC2CC2)(C(F)(F)F)O1 [Efavirenz]
REDUCTION IN VIRAL LOAD (HIV): 50–90%
SIDE EFFECTS [1]: skin reaction

CC(C)Nc1cccnc1N1CCN(C(=O)c2cc3cc(NS(C)(=O)=O)ccc3[nH]2)CC1 [Delaviridine]
REDUCTION IN VIRAL LOAD (HIV): 50–90%
SIDE EFFECTS [1]: skin reaction

O=C(O)COc1cc(OCC(=O)O)c2cc1C(c1ccc(F)cc1)c1cc(c(OCC(=O)O)cc1OCC(=O)O)C(c1ccc(F)cc1)c1cc(c(OCC(=O)O)cc1OCC(=O)O)C(c1ccc(F)cc1)c1cc(c(OCC(=O)O)cc1OCC(=O)O)C2c1ccc(F)cc1 (centres unmarked) [BC070202A]
EC50 (wild-type HIV-1 (111a)): ≥ 20 µg/mL
pEC50 [2]: 4.12
% inhibition of gp120/CD4 binding ([2]; Conc 12.5 um): 24%
% inhibition of gp120/CD4 binding ([2]; Conc 25 um): 24%
% inhibition of gp120/CD4 binding ([2]; Conc 50 um): 31%
% inhibition of gp120/CD4 binding ([2]; Conc 100 um): 54%
activity in words, compared with AC-1 [2]: much less active than the compound AC-1

dextran sulphate
stability after oral intake ([3]; before entry into the plasma): degrades after oral intake before entry into the plasma
oral absorption [3]: poorly absorbed orally

Cc1c(O)cccc1C(=O)N[C@@H](CSc1ccccc1)[C@H](O)CN1C[C@H]2CCCC[C@H]2C[C@H]1C(=O)NC(C)(C)C [Nelfinavir]
REDUCTION IN VIRAL LOAD (HIV): 99%
SIDE EFFECTS [1]: diarrohea, nausea

CC(C)CN(C[C@@H](O)[C@H](Cc1ccccc1)NC(=O)O[C@H]1CCOC1)S(=O)(=O)c1ccc(N)cc1 [Amprenavir]
REDUCTION IN VIRAL LOAD (HIV): 99%
SIDE EFFECTS [1]: severe rash

Cc1cn([C@H]2C[C@H](N=[N+]=[N-])[C@@H](CO)O2)c(=O)[nH]c1=O [Zidovudine]
REDUCTION IN VIRAL LOAD (HIV): 50–90%
benefit in treating HIV-infected individuals (HIV; used by itself): no benefits in treating HIV-infected individuals
Therapeutic index (TC50/EC50 ratio) (HIV-1 [4]): > 62,500
CC50 (cell growth): > 1000 µM
pEC50 (HIV-1 [5]): ~7.80

dodecapotassium acetate of p-bromopyrogallol P—F-phenyl tetramer [AC-1]
Test 2 EC50 (wild-type HIV-1 (111a)): 4 µg/mL
% inhibition of gp120/CD4 binding ([2]; Conc 0.39 um): 48%
% inhibition of gp120/CD4 binding ([2]; Conc 0.78 um): 55%
% inhibition of gp120/CD4 binding ([2]; Conc 1.56 um): 62%
% inhibition of gp120/CD4 binding ([2]; Conc 3.125 um): 70%
% inhibition of gp120/CD4 binding ([2]; Conc 6.25 um): 82%
% inhibition of gp120/CD4 binding ([2]; Conc 12.5 um): 86%
% inhibition of gp120/CD4 binding ([2]; Conc 25 um): 91%
% inhibition of gp120/CD4 binding ([2]; Conc 50 um): 93%
% inhibition of gp120/CD4 binding ([2]; Conc 100 um): 96%

CC(C)(C)NC(=O)[C@@H]1C[C@@H]2CCCC[C@@H]2CN1C[C@@H](O)[C@H](Cc1ccccc1)NC(=O)[C@H](CC(N)=O)NC(=O)c1ccc2ccccc2n1 [Saquinavir]
REDUCTION IN VIRAL LOAD (HIV): 99%
SIDE EFFECTS [1]: loose stools, nausea,

CC(C)(C)NC(=O)[C@@H]1CN(Cc2cccnc2)CCN1C[C@@H](O)C[C@@H](Cc1ccccc1)C(=O)N[C@H]1c2ccccc2C[C@H]1O [Indinavir]
REDUCTION IN VIRAL LOAD (HIV): 99%

O=c1[nH]cnc2c1ncn2[C@H]1CC[C@@H](CO)O1 [Didanosine]
REDUCTION IN VIRAL LOAD (HIV): 50–90%
SIDE EFFECTS [1]: peripheral neuropathy, nausea vomiting, pancreatis

Nc1ccn([C@@H]2CS[C@H](CO)O2)c(=O)n1 [Lamivudine]
SIDE EFFECTS [1]: gastrointestinal

Nc1ccn([C@H]2CC[C@@H](CO)O2)c(=O)n1 [Zalcitabine]
REDUCTION IN VIRAL LOAD (HIV): 50–90%

— patent US7338977B2, “Anti-viral compounds” (Aids Care Pharma Limited, priority 2003, dated 2008)
